From patent publication US11634712B2, “Nucleic acid simultaneously inhibiting expression of mTOR gene and STAT3 gene” (CURIGIN CO., LTD., priority 2017, dated 2023)
d = 2'-deoxy (DNA); r = 2'-OH (RNA)

Key:
mTOR gene = experiment: mTOR expression after mTOR siRNA and/or STAT3 siRNA transfection of A549, real-time PCR; type: cell-based, human; details: A549, 48 hours after transfection, relative to control siRNA nc2 = 1.0000
STAT3 gene = experiment: STAT3 expression after mTOR siRNA and/or STAT3 siRNA transfection of A549, real-time PCR; type: cell-based, human; details: A549, 48 hours after transfection, relative to control siRNA nc2 = 1.0000

| Substance | mTOR expression level (mTOR gene) | STAT3 expression level (STAT3 gene) |
| --- | --- | --- |
| simTOR: siRNA targeting the only mTOR; SEQ ID NOs: 22 and 23 (chain 1 GUGGAAACAGGACCCAUGATT; chain 2 UCAUGGGUCCUGUUUCCACTT; sugars from the 5' end r19 d2, backbone not given here) | 0.1980 | 1.0705 |
| siSTAT3: siRNA targeting the only STAT3; SEQ ID NOS: 24 and 25 (chain 1 UGUUCUCUGAGACCCAUGATT; chain 2 UCAUGGGUCUCAGAGAACATT; sugars from the 5' end r19 d2, backbone not given here) | 1.0507 | 0.6074 |
